pIC50: −log10 of the molar value.
What was measured:
Assay type in all cases: functional, cell-based
[1] = target: T1, Muscarinic acetylcholine receptor M5 (Homo sapiens, UniProt P08912); assay: Negative allosteric modulation of human muscarinic acetylcholine receptor M5 expressed in CHO cells assessed as inhibition of acetylcholine-induced calcium mobilization incubated for 150 secs prior to acetylcholine induction by Fluo-4 AM staining-based fluorescence assay
T1 sequence (P08912 whole entry): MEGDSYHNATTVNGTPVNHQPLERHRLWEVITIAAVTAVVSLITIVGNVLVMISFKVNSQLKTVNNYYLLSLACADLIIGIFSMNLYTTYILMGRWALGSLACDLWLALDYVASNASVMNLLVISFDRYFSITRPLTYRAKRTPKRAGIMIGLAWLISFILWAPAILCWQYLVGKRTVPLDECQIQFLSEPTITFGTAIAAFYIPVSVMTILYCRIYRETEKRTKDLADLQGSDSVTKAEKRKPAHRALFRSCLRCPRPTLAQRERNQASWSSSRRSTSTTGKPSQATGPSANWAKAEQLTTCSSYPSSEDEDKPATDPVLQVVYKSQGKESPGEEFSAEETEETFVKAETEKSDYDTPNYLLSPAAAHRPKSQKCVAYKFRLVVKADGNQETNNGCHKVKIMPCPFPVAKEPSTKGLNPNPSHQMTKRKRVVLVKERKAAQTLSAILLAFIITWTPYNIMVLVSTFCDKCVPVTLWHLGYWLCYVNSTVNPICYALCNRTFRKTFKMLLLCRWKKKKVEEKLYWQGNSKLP

[2] = target: T2, Muscarinic acetylcholine receptor M5 (Homo sapiens) (UniProt P08912); assay: Negative allosteric modulation of human muscarinic acetylcholine receptor M5 expressed in CHO cells assessed as reduction of acetylcholine-induced calcium mobilization at 10 uM incubated for 150 secs prior to acetylcholine induction by Fluo-4 AM staining-based fluorescence assay relative to control; set-up: scale not given: the % may be the effect or the level left
T2 sequence (whole entry): T1 sequence (P08912 whole entry)

[3] = target: T3, Muscarinic acetylcholine receptor M1 (Homo sapiens, UniProt P11229); assay: Negative allosteric modulation of human muscarinic acetylcholine receptor M1 expressed in CHO cells assessed as inhibition of acetylcholine-induced calcium mobilization incubated for 150 secs prior to acetylcholine induction by Fluo-4 AM staining-based fluorescence assay
T3 sequence (P11229 whole entry): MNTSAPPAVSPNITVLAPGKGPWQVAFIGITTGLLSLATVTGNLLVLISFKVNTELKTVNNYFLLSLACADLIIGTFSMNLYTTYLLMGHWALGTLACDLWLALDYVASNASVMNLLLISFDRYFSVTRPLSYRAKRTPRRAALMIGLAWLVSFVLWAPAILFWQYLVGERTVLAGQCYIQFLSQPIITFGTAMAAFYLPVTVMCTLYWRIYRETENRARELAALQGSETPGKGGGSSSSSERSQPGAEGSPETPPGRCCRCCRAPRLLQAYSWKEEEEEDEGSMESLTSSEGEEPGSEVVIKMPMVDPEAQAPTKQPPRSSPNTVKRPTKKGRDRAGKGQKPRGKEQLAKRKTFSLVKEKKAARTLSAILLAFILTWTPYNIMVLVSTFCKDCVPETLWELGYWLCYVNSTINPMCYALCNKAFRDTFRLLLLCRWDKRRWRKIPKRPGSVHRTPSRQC

[4] = target: T4, Muscarinic acetylcholine receptor M2 (Homo sapiens, UniProt P08172); assay: Negative allosteric modulation of human muscarinic acetylcholine receptor M2 expressed in CHO cells assessed as inhibition of acetylcholine-induced calcium mobilization incubated for 150 secs prior to acetylcholine induction by Fluo-4 AM staining-based fluorescence assay
T4 sequence (P08172 whole entry): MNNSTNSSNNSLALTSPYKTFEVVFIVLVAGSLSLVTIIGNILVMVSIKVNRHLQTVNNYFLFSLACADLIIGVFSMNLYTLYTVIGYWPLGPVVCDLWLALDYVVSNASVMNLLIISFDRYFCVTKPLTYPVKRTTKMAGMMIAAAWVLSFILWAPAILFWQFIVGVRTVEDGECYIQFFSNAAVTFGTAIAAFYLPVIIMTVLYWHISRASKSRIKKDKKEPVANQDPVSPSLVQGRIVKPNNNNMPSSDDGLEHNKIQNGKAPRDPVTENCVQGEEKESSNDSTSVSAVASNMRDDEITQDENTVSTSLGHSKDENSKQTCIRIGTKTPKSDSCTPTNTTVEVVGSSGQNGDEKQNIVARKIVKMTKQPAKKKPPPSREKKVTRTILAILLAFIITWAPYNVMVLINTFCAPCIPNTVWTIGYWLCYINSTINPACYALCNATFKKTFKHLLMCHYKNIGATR

[5] = target: T5, Muscarinic acetylcholine receptor M5 (Rattus norvegicus, UniProt P08911); assay: Negative allosteric modulation of rat muscarinic acetylcholine receptor M5 expressed in CHO cells assessed as inhibition of acetylcholine-induced calcium mobilization incubated for 150 secs prior to acetylcholine induction by Fluo-4 AM staining-based fluorescence assay
T5 sequence (P08911 whole entry): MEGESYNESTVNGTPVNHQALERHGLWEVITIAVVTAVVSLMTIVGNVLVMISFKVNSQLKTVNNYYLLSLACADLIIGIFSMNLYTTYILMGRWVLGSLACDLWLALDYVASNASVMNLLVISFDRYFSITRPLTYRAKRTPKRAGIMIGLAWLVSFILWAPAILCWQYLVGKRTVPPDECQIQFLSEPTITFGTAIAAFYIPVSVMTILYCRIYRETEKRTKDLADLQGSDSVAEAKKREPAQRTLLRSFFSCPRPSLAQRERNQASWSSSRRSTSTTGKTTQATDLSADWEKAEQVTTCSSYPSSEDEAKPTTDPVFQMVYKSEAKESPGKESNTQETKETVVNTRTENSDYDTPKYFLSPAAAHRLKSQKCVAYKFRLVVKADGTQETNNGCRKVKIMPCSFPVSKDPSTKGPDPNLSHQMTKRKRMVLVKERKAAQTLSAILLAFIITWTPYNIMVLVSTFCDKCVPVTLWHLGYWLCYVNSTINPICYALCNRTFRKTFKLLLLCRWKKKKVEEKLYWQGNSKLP

[6] = target: Muscarinic acetylcholine receptor M3 (Homo sapiens, UniProt P20309); assay: Negative allosteric modulation of human muscarinic acetylcholine receptor M3 expressed in CHO cells assessed as inhibition of acetylcholine-induced calcium mobilization incubated for 150 secs prior to acetylcholine induction by Fluo-4 AM staining-based fluorescence assay
Chain of Muscarinic acetylcholine receptor M3 (P20309 whole entry): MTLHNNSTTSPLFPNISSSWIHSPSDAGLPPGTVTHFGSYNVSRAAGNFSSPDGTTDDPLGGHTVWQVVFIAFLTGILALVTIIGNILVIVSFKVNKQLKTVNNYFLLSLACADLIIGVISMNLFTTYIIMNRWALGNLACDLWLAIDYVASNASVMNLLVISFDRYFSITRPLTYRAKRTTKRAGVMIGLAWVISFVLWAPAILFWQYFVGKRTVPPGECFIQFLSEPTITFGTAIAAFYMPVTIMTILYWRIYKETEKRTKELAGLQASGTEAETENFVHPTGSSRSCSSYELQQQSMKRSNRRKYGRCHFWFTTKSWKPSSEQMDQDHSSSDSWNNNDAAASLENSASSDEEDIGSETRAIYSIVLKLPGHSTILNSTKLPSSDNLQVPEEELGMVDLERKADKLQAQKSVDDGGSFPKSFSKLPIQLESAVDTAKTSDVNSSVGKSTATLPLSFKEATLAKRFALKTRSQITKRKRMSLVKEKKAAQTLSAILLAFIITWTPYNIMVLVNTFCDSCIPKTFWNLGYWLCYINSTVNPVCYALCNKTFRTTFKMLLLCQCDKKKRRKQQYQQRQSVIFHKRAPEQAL

[7] = target: T6, Muscarinic acetylcholine receptor M4 (Homo sapiens, UniProt P08173); assay: Negative allosteric modulation of human muscarinic acetylcholine receptor M4 expressed in CHO cells assessed as inhibition of acetylcholine-induced calcium mobilization incubated for 150 secs prior to acetylcholine induction by Fluo-4 AM staining-based fluorescence assay
T6 sequence (P08173 whole entry): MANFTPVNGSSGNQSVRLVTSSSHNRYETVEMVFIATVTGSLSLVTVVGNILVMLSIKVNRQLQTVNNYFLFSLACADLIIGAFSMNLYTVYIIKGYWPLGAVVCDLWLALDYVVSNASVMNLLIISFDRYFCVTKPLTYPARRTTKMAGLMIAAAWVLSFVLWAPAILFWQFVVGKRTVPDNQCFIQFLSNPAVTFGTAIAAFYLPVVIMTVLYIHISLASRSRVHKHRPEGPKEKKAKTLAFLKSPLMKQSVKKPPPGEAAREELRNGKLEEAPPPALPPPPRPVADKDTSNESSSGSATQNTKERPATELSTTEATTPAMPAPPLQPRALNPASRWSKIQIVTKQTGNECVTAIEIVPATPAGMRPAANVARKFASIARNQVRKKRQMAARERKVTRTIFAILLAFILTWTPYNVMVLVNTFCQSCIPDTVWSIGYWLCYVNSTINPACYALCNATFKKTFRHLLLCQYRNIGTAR

Compound `O=C(c1ccc(C(F)(F)F)cc1)N1CCN2C(=O)c3ccccc3C12c1ccc(F)cc1` (stereo unspecified) has a pIC50 [1] of under 5.00.
`O=C(c1ccc(SC(F)(F)F)cc1)N1CCN2C(=O)c3ccccc3C12c1ccc(Cl)cc1` (stereo unspecified) showed a pIC50 [1] of 5.52 and an Activity [2] of -9.2%.
Work on `Cc1ccc(C(=O)N2CCN3C(=O)c4ccccc4C23c2ccc(C)cc2)cc1` (stereo unspecified) yielded a pIC50 [1] of under 5.00.
For `O=C(c1cc(Cl)cc(Cl)c1)N1CCN2C(=O)c3ccccc3C12c1ccccc1` (stereo unspecified), the pIC50 [1] was 5.24 and the Activity [2] was 0%.
In the case of `Cc1ccc(C(=O)N2CCN3C(=O)c4ccccc4C23c2ccc(F)cc2)cc1` (stereo unspecified), the pIC50 [1] was under 5.00.
For `O=C(c1ccc(OC(F)(F)F)cc1)N1CCN2C(=O)c3ccccc3C12c1ccc(F)cc1` (stereo unspecified), the pIC50 [1] was under 5.00.
For `Cc1ccc(C23c4ccccc4C(=O)N2CCN3C(=O)c2ccc(F)c(F)c2)cc1` (stereo unspecified), the pIC50 [1] was 5.59 and the Activity [2] was -6.8%.
For `Cc1ccc(C23c4ccccc4C(=O)N2CCN3C(=O)c2cccc(C(F)(F)F)c2)cc1` (stereo unspecified), the pIC50 [1] was under 5.00.
Work on `O=C(c1ccc(SC(F)(F)F)cc1)N1CCN2C(=O)c3ccccc3C12c1ccc(F)cc1` (stereo unspecified) yielded a pIC50 [1] of 5.89 and an Activity [2] of -0.2%.
`O=C(c1cc(F)cc(F)c1)N1CCN2C(=O)c3ccccc3C12c1ccc(Cl)cc1` (stereo unspecified) showed a pIC50 [1] of 6.00 and an Activity [2] of 2.8%.
`Cc1ccc(C(=O)N2CCN3C(=O)c4ccccc4C23c2ccc(Cl)cc2)cc1` (stereo unspecified) gave a pIC50 [1] of 5.59 and an Activity [2] of 0.1%.
`O=C(c1ccc(F)cc1)N1CCN2C(=O)c3ccccc3C12c1ccccc1` (stereo unspecified) was tested, and the pIC50 [1] was 5.46, the pIC50 [3] was under 4.52 and the pIC50 [4] was under 4.52. It also gave an Activity [2] of 41%, a pIC50 [5] of 5.25 and a pIC50 [6] of under 4.52. For the same compound, the pIC50 [7] was under 4.52.
Compound `O=C(c1cc(F)cc(F)c1)N1CCN2C(=O)c3ccccc3C12c1ccc(F)cc1` (stereo unspecified) has a pIC50 [1] of under 5.00.
Compound `O=C(c1cccc(C(F)(F)F)c1)N1CCN2C(=O)c3ccccc3C12c1ccc(F)cc1` (stereo unspecified) has a pIC50 [1] of 5.68 and an Activity [2] of -2.4%.
Work on `Cc1ccc(C23c4ccccc4C(=O)N2CCN3C(=O)c2ccc(C(F)(F)F)cc2)cc1` (stereo unspecified) yielded a pIC50 [1] of under 5.00.
`O=C(c1ccc(OC(F)(F)F)cc1)N1CCN2C(=O)c3ccccc3C12c1ccccc1` (stereo unspecified) gave a pIC50 [1] of 5.35 and an Activity [2] of 0.2%.
Compound `O=C(c1ccc(C(F)(F)F)cc1)N1CCN2C(=O)c3ccccc3C12c1ccccc1` (stereo unspecified) has a pIC50 [1] of 5.71 and an Activity [2] of -2.4%.
`O=C(c1cccc(C(F)(F)F)c1)N1CCN2C(=O)c3ccccc3C12c1ccccc1` (stereo unspecified) was tested, and the pIC50 [1] was 5.52 and the Activity [2] was -0.7%.
For `O=C(c1ccc(C(F)(F)F)cc1)N1CCN2C(=O)c3ccccc3C12c1ccc(Cl)cc1` (stereo unspecified), the pIC50 [1] was 5.70 and the Activity [2] was 0.7%.
`O=C(c1cc(F)cc(F)c1)N1CCN2C(=O)c3ccccc3C12c1ccccc1` (stereo unspecified) was tested, and the pIC50 [1] was 5.42 and the Activity [2] was -2.2%.
Work on `Cc1ccc(C23c4ccccc4C(=O)N2CCN3C(=O)c2cc(F)cc(F)c2)cc1` (stereo unspecified) yielded a pIC50 [1] of 5.64 and an Activity [2] of -1.1%.
Compound `O=C(c1ccc(F)c(F)c1)N1CCN2C(=O)c3ccccc3C12c1ccc(F)cc1` (stereo unspecified) has a pIC50 [1] of under 5.00.
`Cc1ccc(C23c4ccccc4C(=O)N2CCN3C(=O)c2ccc(OC(F)(F)F)cc2)cc1` (stereo unspecified) gave a pIC50 [1] of 5.46 and an Activity [2] of -0.2%.
`O=C(c1ccc(OC(F)(F)F)cc1)N1CCN2C(=O)c3ccccc3C12c1ccc(Cl)cc1` (stereo unspecified) showed a pIC50 [1] of 5.64 and an Activity [2] of -5.3%.
With `O=C(c1ccc(F)c(F)c1)N1CCN2C(=O)c3ccccc3C12c1ccc(Cl)cc1` (racemic) the pIC50 [3] was under 4.52, the pIC50 [4] was under 4.52 and the Activity [2] was 0.1%. It also gave a pIC50 [6] of under 4.52 and a pIC50 [7] of under 4.52.
`Cc1ccc(C23c4ccccc4C(=O)N2CCN3C(=O)c2ccc(SC(F)(F)F)cc2)cc1` (stereo unspecified) was tested, and the pIC50 [1] was 5.39 and the Activity [2] was 4.1%.
With `O=C(c1cccc(C(F)(F)F)c1)N1CCN2C(=O)c3ccccc3C12c1ccc(Cl)cc1` (stereo unspecified) the pIC50 [1] was 5.31 and the Activity [2] was -7.2%.
For `O=C(c1ccc(SC(F)(F)F)cc1)N1CCN2C(=O)c3ccccc3C12c1ccccc1` (stereo unspecified), the pIC50 [1] was 5.86 and the Activity [2] was 0.5%.

Source: ChEMBL document CHEMBL3102750 (J Med Chem, 2013)
